Experimental findings from article PMC9502272, “A Metabolomics Approach for Predicting OATP1B-Type Transporter-Mediated Drug–Drug Interaction Liabilities” (Pharmaceutics, 2022) are described below.

Several values for one entry are separate records, joined by “and”; a condition that tells them apart may be missing. Equal entries are not always repeated.

Data set [1] relates to Oatp1a/1b. The data set is described as follows: Baseline plasma biomarker levels in Oatp1a/1b(−/−) cluster-knockout vs wild-type mice. Type of data set: in vivo, mouse. The note with it: n = 6–10 per group. The protocol:
(§1) Plasma concentrations of levels of CDCA-24G and glycochenodeoxycholate-3-sulfate (GCDCA-S) were determined using LC-MS/MS using a Vanquish UHPLC coupled with a Quantiva triple quadrupole mass spectrometer (Thermo Fisher Scientific, Waltham, MA, USA). An Accucore aQ column (50 × 2.1 mm, dp = 2.6 μm; Thermo Fisher Scientific) was protected by a C18 AQUASIL guard cartridge (2.1 mm × 10 mm, dp = 3 μm; Thermo Fisher Scientific). The injection volume of sample was 5.0 μL. The temperature of the autosampler rack was 4 °C, and the temperature of the column was maintained at 20 °C. The mobile phase was composed of solvent A (2 mmol ammonium acetate in water) and solvent B (100% methanol), and the total run time was 4.6 min. The gradient conditions were as follows: 0–0.5 min, 45% B; 0.5–2.0 min, 45 to 90%, 2.0–4.0 min, 90% B; 4.0–4.6 min, 45% B, delivered at a flow rate of 0.4 mL/min. The MS assay setting with the positive voltage applied to the ESI capillary was set at 3791 V, and the capillary temperatures was 335 °C with a vaporizer temperature of 350 °C. Argon was used as the collision gas at a pressure of 1.5 mTorr. Precursor molecular ions, and product ions were recorded for the confirmation and detection of GCDCA-S (528.4 > 448.3) and CDCA-24G (567.4 > 391.1), using [^2H5]-GCDCA-S (535.5 > 453.3) and [^2H5]-CDCA-24G (572.5 > 396.1) as respective internal standards. The lower limit of quantitation (LLOQ) for both analytes was determined to be 0.5 ng/mL. […]
Plasma concentrations of coproporphyrin I (CP-I) and III (CP-III) were determined similarly by LC-MS/MS. […] Precursor molecular ions and product ions were recorded for confirmation and detection of CP-I (655.4 > 596.4) and CP-III (655.4 > 596.3), using [^2H4]-CP-III (659.4 > 600.3) as the internal standard for both analytes. The LLOQ for both analytes were determined to be 1 ng/mL, and the within-run and between-run precisions as well as the accuracy were always within acceptable limits.

Data set [2] relates to human OATP1B1. The data set is described as follows: Baseline plasma CDCA-24G in Oatp1a/1b(−/−) mice with transgenic hepatic expression of OATP1B1 (OATP1B1(tg)). The format is in vivo, mouse. The note with it: range stated jointly for OATP1B1(tg) and OATP1B3(tg). As to the method: as §1, with “The MS assay setting with the positive voltage applied to the ESI capillary was set at 3791 V, and the capillary temperatures was 335 °C with a vaporizer temperature of 350 °C. Argon was used as the collision gas at a pressure of 1.5 mTorr.” left out

Data set [3] concerns the target T1, Oatp1b2 (Mus musculus, UniProt Q9JJL3).
T1 sequence (Q9JJL3 1-689): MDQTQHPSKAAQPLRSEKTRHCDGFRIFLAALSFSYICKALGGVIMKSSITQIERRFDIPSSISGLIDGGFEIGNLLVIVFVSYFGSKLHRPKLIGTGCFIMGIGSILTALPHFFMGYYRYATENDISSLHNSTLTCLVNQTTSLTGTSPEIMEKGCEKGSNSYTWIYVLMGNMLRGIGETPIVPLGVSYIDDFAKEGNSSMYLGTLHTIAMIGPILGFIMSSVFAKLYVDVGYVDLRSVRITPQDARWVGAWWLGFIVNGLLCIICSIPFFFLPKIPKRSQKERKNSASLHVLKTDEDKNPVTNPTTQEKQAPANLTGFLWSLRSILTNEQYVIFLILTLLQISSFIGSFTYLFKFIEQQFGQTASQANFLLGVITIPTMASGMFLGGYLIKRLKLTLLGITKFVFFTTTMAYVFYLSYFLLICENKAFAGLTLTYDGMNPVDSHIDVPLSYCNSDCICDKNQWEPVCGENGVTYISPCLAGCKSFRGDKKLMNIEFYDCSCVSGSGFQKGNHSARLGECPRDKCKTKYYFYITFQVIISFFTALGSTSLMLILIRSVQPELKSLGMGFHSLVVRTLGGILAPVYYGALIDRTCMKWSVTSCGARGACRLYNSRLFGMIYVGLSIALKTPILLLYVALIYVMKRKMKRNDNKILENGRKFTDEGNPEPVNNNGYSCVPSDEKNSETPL
The data set is described as follows: Baseline plasma CDCA-24G in Oatp1b2(−/−) vs wild-type mice, validated quantitative LC-MS/MS. Type of data set: in vivo. Further details: from tissue; host or cells: living wild-type mice (DBA/1LacJ or FVB background); hepatic transporter in vivo. The note with it: untreated, n = 6 per group. The protocol:
as §1, with “The MS assay setting with the positive voltage applied to the ESI capillary was set at 3791 V, and the capillary temperatures was 335 °C with a vaporizer temperature of 350 °C. Argon was used as the collision gas at a pressure of 1.5 mTorr.” left out

Turning to `C[C@H](CCC(=O)O[C@@H]1O[C@H](C(=O)O)[C@@H](O)[C@H](O)[C@H]1O)[C@H]1CC[C@H]2[C@@H]3[C@H](O)C[C@@H]4C[C@H](O)CC[C@]4(C)[C@H]3CC[C@]12C` [CDCA-24G, chenodeoxycholate-24-glucuronide], in data set [1], the “Plasma concentration of CDCA-24G in Oatp1a/1b(−/−) mice relative to wild type” value was 83 fold and > 80 fold. The “Baseline CDCA-24G level, fold lower than in Oatp1a/1b(−/−) mice” value in data set [2] is 5- to 7 fold. In addition, in data set [3], the “Plasma concentration of CDCA-24G in Oatp1b2(−/−) mice relative to wild type” value is 31 fold and > 30 fold.
